The structures appear in SMILES notation.

The values that follow come from BindingDB's records for doi:10.1016/j.bmcl.2005.08.106 (Astrazeneca, 2005).

The assay is described as follows: Inhibition of Src-transfected 3T3 cell proliferation.
What is called IC50 is the concentration needed to halve the response being measured. Read a high IC50 as a need for much substance. Take `COc1cnc(Cl)c(Nc2ncnc3cc(OCCN4CCN(C(C)=O)CC4)cc(OC(C)C)c23)n1` [1-(4-(2-(4-(3-chloro-6-methoxypyrazin-2-ylamino)-5-isopropoxyquinazolin-7-yloxy)ethyl)piperazin-1-yl)ethanone]: the midpoint of inhibition, the IC50, lay at 70 nM. The result for `COc1ccc(Cl)c(Nc2ncnc3cc(OCCN4CCN(C(C)=O)CC4)cc(OC(C)C)c23)n1` [1-(4-(2-(4-(3-chloro-6-methoxypyridin-2-ylamino)-5-isopropoxyquinazolin-7-yloxy)ethyl)piperazin-1-yl)ethanone] reads 60 nM; that for `COc1ccc(Cl)c(Nc2ncnc3cc(OCCCN4CCN(C(C)=O)CC4)cc(OC(C)C)c23)n1` [1-(4-(3-(4-(3-chloro-6-methoxypyridin-2-ylamino)-5-isopropoxyquinazolin-7-yloxy)propyl)piperazin-1-yl)ethanone], 20 nM. The result for `COc1ccc(Cl)c(Nc2ncnc3cc(OCCCN4CCOCC4)cc(OC(C)C)c23)c1` [N-(2-chloro-5-methoxyphenyl)-7-[3-(morpholin-4-yl)propoxy]-5-(propan-2-yloxy)quinazolin-4-amine] reads 150 nM; that for `COc1cnc(Cl)c(Nc2ncnc3cc(OCCCN4CCOCC4)cc(OC(C)C)c23)c1` [N-(2-chloro-5-methoxypyridin-3-yl)-5-isopropoxy-7-(3-morpholinopropoxy)quinazolin-4-amine], 150 nM; that for `COc1cnc(Cl)c(Nc2ncnc3cc(OCCCN4CCOCC4)cc(OC4CCOCC4)c23)c1` [N-(2-chloro-5-methoxypyridin-3-yl)-7-(3-morpholinopropoxy)-5-(tetrahydro-2H-pyran-4-yloxy)quinazolin-4-amine], 140 nM. In the case of `COc1ccc(Cl)c(Nc2ncnc3cc(OCCN4CCCC4)cc(OC(C)C)c23)n1` [N-(3-chloro-6-methoxypyridin-2-yl)-5-isopropoxy-7-(2-(pyrrolidin-1-yl)ethoxy)quinazolin-4-amine], the IC50 was found to be 120 nM. As for `COc1ccc(Cl)c(Nc2ncnc3cc(OCCN4CCOCC4)cc(OC(C)C)c23)n1` [N-(3-chloro-6-methoxypyridin-2-yl)-5-isopropoxy-7-(2-morpholinoethoxy)quinazolin-4-amine], the IC50 is 120 nM. `COc1ccc(Cl)c(Nc2ncnc3cc(OCCCN4CCN(C)CC4)cc(OC(C)C)c23)n1` [N-(3-chloro-6-methoxypyridin-2-yl)-5-isopropoxy-7-(3-(4-methylpiperazin-1-yl)propoxy)quinazolin-4-amine] registered an IC50 of 60 nM.

`COc1ccc(Cl)c(Nc2ncnc3cc(OCCCN4CCCC4)cc(OC(C)C)c23)n1` [N-(3-chloro-6-methoxypyridin-2-yl)-5-isopropoxy-7-(3-(pyrrolidin-1-yl)propoxy)quinazolin-4-amine]: the half-inhibitory concentration (IC50) was 70 nM.

Compound `COc1ccc(Cl)c(Nc2ncnc3cc(OCCCN4CCOCC4)cc(OC(C)C)c23)n1` [N-(3-chloro-6-methoxypyridin-2-yl)-5-isopropoxy-7-(3-morpholinopropoxy)quinazolin-4-amine] registered a concentration for half-maximal inhibition (IC50) of 30 nM. The result for `COc1ccc(Cl)c(Nc2ncnc3cc(OCCCN4CCOCC4)cc(OC4CCOCC4)c23)n1` [N-(3-chloro-6-methoxypyridin-2-yl)-7-(3-morpholinopropoxy)-5-(tetrahydro-2H-pyran-4-yloxy)quinazolin-4-amine] reads 70 nM. For `COc1cc(Nc2ncnc3cc(OCCCN4CCOCC4)cc(OC(C)C)c23)c(Cl)cn1` [N-(5-chloro-2-methoxypyridin-4-yl)-5-isopropoxy-7-(3-morpholinopropoxy)quinazolin-4-amine] the value was 350 nM.
